# Reference: patent EP0401963A1, “Phosphonopeptides with collagenase inhibiting activity” (Beecham Group p.l.c., priority 1989, dated 1990)
# Molecular target: human lung fibroblast collagenase
# Assay: Collagenase inhibitor assay (human lung fibroblast collagenase, 14C-acetylated Type I collagen fibril degradation)
# Type: biochemical
# Settings: Inhibition of human lung fibroblast collagenase (purified from WI-38 culture supernatants); 14C-acetylated rat skin Type I collagen substrate; 37°C overnight; read-out: IC₅₀
# Experimental: The assay tubes are incubated at 37 °C overnight.
row,IC50,SMILES
1,45 nM,"CC[C@@H](N[C@@H](CC(C)C)C(=O)NC1CCCCCCCCCCNC1=O)P(=O)(O)O (single isomer, unassigned) [Example E3C]"
2,166 nM,"CC[C@H](N[C@@H](CC(C)C)C(=O)NC1CCCCCCCCCCNC1=O)P(=O)(O)O (single isomer, unassigned) [Example E4]"
3,9490 nM,"CCCCC(N[C@@H](CC(C)C)C(=O)NC1CCCCCCCCCCNC1=O)P(=O)(O)O (stereo partly drawn) [Example E8, 3-[N-[N-(1-Phosphonopentyl)-(S)-leucyl]]-(-)-aminoazacyclotridecan-2-one]"
